From patent US20060069132A1, “Azolecarboxamide herbicides” (priority 2004, published 2006)
Read-outs that look alike come from different tables or passages of the source.

How the values were obtained:
Surinam grass = assay: Test C pre-/postemergence herbicide test; assay type: in vivo, Urochloa decumbens
Outline: (§1)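 Visual injury scores run from 0 (no effect) to 100 (complete control), assessed relative to untreated controls 12 to 14 days after treatment in the greenhouse. Chemicals were formulated in a non-phytotoxic solvent mixture with surfactant and applied to soil after planting or to emerged plants at the 1- to 4-leaf stage.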

giant foxtail = assay: Test A pre-/postemergence herbicide test; assay type: in vivo, Setaria faberi
Outline: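 Pre: seeded sandy loam, directed soil spray, compound in non-phytotoxic solvent + surfactant. Post: 1–2-leaf plants (2–10 cm), sprayed to runoff. Greenhouse ~10 d; visual injury vs untreated, 0–100 scale.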

lambsquarters = assay: Test B pre-/postemergence herbicide test; assay type: in vivo, Chenopodium album; conditions: for pest or weed control at 125 g/ha / pest or weed control at 500 g/ha: Chenopodium album, 336 h
Outline: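 Evaluation is visual, comparing treated with control plants on a scale where 0 means no effect and 100 means full control. Treatments were preemergence, or postemergence on seedlings 2–18 cm tall, and held 13–15 days in the greenhouse.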

soybean = assay: Test C pre-/postemergence herbicide test; assay type: in vivo, Glycine max
Outline: as §1

pigweed = assay: Test C pre-/postemergence herbicide test; assay type: in vivo, Amaranthus retroflexus
Outline: as §1

goosegrass = assay: Test C pre-/postemergence herbicide test; assay type: in vivo, Eleusine indica
Outline: as §1

barnyardgrass = assay: Test B flooded paddy test; assay type: in vivo, Echinochloa crus-galli; conditions: 1000 g ai/ha, scale 0 to 100 (0 no effect, 100 complete control); for pest or weed control at 1000 g/ha: Echinochloa crus-galli, 336 h, visual rating, 13 to 15 days, read-out: Barnyardgrass plant response rating
Outline: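 Read-out: visual comparison with controls, scored 0 to 100, where 100 means complete control and 0 no effect. Formulated chemicals were applied postemergence to plants 2–18 cm tall (1- to 4-leaf), or to flooded-paddy plants at the 2-leaf stage, then held 13 to 15 days under glass.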

[1] = 62 g ai/ha, preemergence, scale 0 to 100
[2] = 250 g ai/ha, scale 0-100, preemergence
[3] = 500 g ai/ha, scale 0 to 100 (0 no effect, 100 complete control), visual, 12 to 14 days, preemergence
[4] = Postemergence, 500 g ai/ha, scale 0 to 100
[5] = Postemergence, 250 g ai/ha, scale 0 to 100, 0 no effect, 100 complete control
[6] = postemergence, 125 g ai/ha, scale 0 to 100
[7] = postemergence, 62 g ai/ha, scale 0 to 100
[8] = 125 g ai/ha, 0 is no effect, 100 is complete control, preemergence
[9] = 125 g ai/ha, scale 0 (no effect) to 100 (complete control), visual, 12 to 14 days, preemergence
[10] = Urochloa decumbens, pre-emergence, 312 h, 62 g ai/ha, preemergence, scale 0 to 100, read-out: Plant response rating, Surinam Grass
[11] = post-emergence, postemergence, 125 g ai/ha, visual rating, scale 0 (no effect) to 100 (complete control), read-out: Lambsquarters plant response rating
[12] = post-emergence, postemergence, 500 g ai/ha, visual rating, scale 0 (no effect) to 100 (complete control), read-out: Lambsquarters plant response rating
[13] = Glycine max, pre-emergence, 62 g ai/ha, preemergence, scale 0 to 100, read-out: Plant response rating, Soybean
[14] = Amaranthus retroflexus, pre-emergence, 62 g ai/ha, preemergence, scale 0 to 100, read-out: Plant response rating, Pigweed
[15] = Amaranthus retroflexus, pre-emergence, 125 g ai/ha, scale 0 (no effect) to 100 (complete control), visual, 12 to 14 days, read-out: Plant response rating, Pigweed
[16] = Eleusine indica, pre-emergence, 312 h, 62 g ai/ha, preemergence, scale 0 to 100, read-out: Plant response rating, Goosegrass
[17] = Eleusine indica, pre-emergence, 312 h, 125 g ai/ha, scale 0 (no effect) to 100 (complete control), visual, 12 to 14 days, read-out: Plant response rating, Goosegrass
[18] = Preemergence, 500 g ai/ha, scale 0 to 100, 0 no effect, 100 complete control

## C=CCNC(=O)c1cccc(NC(=O)c2cc(C(C)(C)C)nn2C)n1 [Compound 318]
Surinam grass; [1]
  Plant response rating, Surinam Grass: 10
Surinam grass; [2]
  Plant response rating, Surinam Grass: 50
Surinam grass; [3]
  Plant response rating, Surinam Grass: 60
Surinam grass; [4]
  Surinam Grass plant response rating: 10
Surinam grass; [5]
  Plant response rating, Surinam Grass: 0
Surinam grass; [6]
  Plant response rating, Surinam Grass: 0
Surinam grass; [7]
  Plant response rating, Surinam Grass: 0
Giant foxtail; Postemergence, 500 g ai/ha, 0 to 100 scale, 0 no effect, 100 complete control
  Foxtail, Giant plant response rating: 50
Giant foxtail; Postemergence, 2000 g ai/ha, 0 to 100 scale, 0 no effect, 100 complete control
  Plant response rating, Foxtail, Giant: 90
Giant foxtail; Preemergence, 2000 g ai/ha, visual rating, 0 to 100 scale (0 no effect, 100 complete control)
  Foxtail, Giant plant response rating: 85
Giant foxtail; preemergence, 500 g ai/ha, visual injury, 0 to 100 scale (0 no effect, 100 complete control)
  Foxtail, Giant plant response rating: 40
lambsquarters; [8]
  Plant response rating (0 to 100 scale), Lambsquarters: 90
lambsquarters; 125 g ai/ha, visual rating, scale 0 (no effect) to 100 (complete control), postemergence
  Lambsquarters plant response rating: 80
lambsquarters; 500 g ai/ha, visual rating, 0 = no effect, 100 = complete control, preemergence
  Plant response rating, Lambsquarters: 100
lambsquarters; postemergence, 500 g ai/ha, scale 0 to 100, 0 is no effect, 100 is complete control
  Lambsquarters plant response rating: 80
soybean; [1]
  Plant response rating, Soybean: 0
soybean; [2]
  Plant response rating, Soybean: 10
soybean; [3]
  Plant response rating, Soybean: 40
soybean; [4]
  Soybean plant response rating: 90
soybean; [5]
  Plant response rating, Soybean: 80
soybean; [6]
  Plant response rating, Soybean: 70
soybean; [7]
  Plant response rating, Soybean: 65
pigweed; [1]
  Plant response rating, Pigweed: 80
pigweed; [9]
  Plant response rating, Pigweed: 95
pigweed; [2]
  Plant response rating, Pigweed: 100
pigweed; [3]
  Plant response rating, Pigweed: 100
pigweed; [4]
  Pigweed plant response rating: 100
pigweed; [5]
  Plant response rating, Pigweed: 100
pigweed; [6]
  Plant response rating, Pigweed: 100
pigweed; [7]
  Plant response rating, Pigweed: 100
goosegrass; [1]
  Plant response rating, Goosegrass: 0
goosegrass; [9]
  Plant response rating, Goosegrass: 10
goosegrass; [2]
  Plant response rating, Goosegrass: 80
goosegrass; [3]
  Plant response rating, Goosegrass: 90
goosegrass; [4]
  Goosegrass plant response rating: 5
goosegrass; [5]
  Plant response rating, Goosegrass: 5
goosegrass; [6]
  Plant response rating, Goosegrass: 0
goosegrass; [7]
  Plant response rating, Goosegrass: 0
barnyardgrass
  Barnyardgrass plant response rating: 70

## CCNC(=O)c1cccc(NC(=O)c2nn(C(C)(C)C)cc2Br)c1 [Compound 221, 4-bromo-1-(1,1-dimethylethyl)-N-[3-[(ethylamino)carbonyl]phenyl]-1H-pyrazole-3-carboxamide]
Surinam grass; [10]
  pest or weed control at 62 g/ha: 0%
Surinam grass; Urochloa decumbens, pre-emergence, 312 h, 250 g ai/ha, scale 0-100, read-out: Plant response rating, Surinam Grass
  pest or weed control at 250 g/ha: 10%
Surinam grass; Urochloa decumbens, pre-emergence, 312 h, 500 g ai/ha, scale 0 to 100 (0 no effect, 100 complete control), visual, 12 to 14 days, read-out: Plant response rating, Surinam Grass
  pest or weed control at 500 g/ha: 45%
lambsquarters; [11]
  pest or weed control at 125 g/ha: 0%
lambsquarters; [12]
  pest or weed control at 500 g/ha: 20%
lambsquarters; pre-emergence, 125 g ai/ha, 0 = no effect, 100 = complete control, read-out: Lambsquarters plant response rating (0 to 100 scale)
  pest or weed control at 125 g/ha: 20%
lambsquarters; pre-emergence, 500 g ai/ha, visual rating, 0 = no effect, 100 = complete control, read-out: Plant response rating, Lambsquarters
  pest or weed control at 500 g/ha: 100%
soybean; [13]
  plant injury at 62 g/ha: 0%
soybean; Glycine max, pre-emergence, 250 g ai/ha, scale 0-100, read-out: Plant response rating, Soybean
  plant injury at 250 g/ha: 0%
soybean; Glycine max, pre-emergence, 500 g ai/ha, scale 0 to 100 (0 no effect, 100 complete control), visual, 12 to 14 days, read-out: Plant response rating, Soybean
  plant injury at 500 g/ha: 20%
pigweed; [14]
  pest or weed control at 62 g/ha: 90%
pigweed; [15]
  pest or weed control at 125 g/ha: 100%
pigweed; Amaranthus retroflexus, pre-emergence, 250 g ai/ha, scale 0-100, read-out: Plant response rating, Pigweed
  pest or weed control at 250 g/ha: 100%
pigweed; Amaranthus retroflexus, pre-emergence, 500 g ai/ha, scale 0 to 100 (0 no effect, 100 complete control), visual, 12 to 14 days, read-out: Plant response rating, Pigweed
  pest or weed control at 500 g/ha: 100%
goosegrass; [16]
  pest or weed control at 62 g/ha: 0%
goosegrass; [17]
  pest or weed control at 125 g/ha: 0%
goosegrass; Eleusine indica, pre-emergence, 312 h, 250 g ai/ha, scale 0-100, read-out: Plant response rating, Goosegrass
  pest or weed control at 250 g/ha: 0%
goosegrass; Eleusine indica, pre-emergence, 312 h, 500 g ai/ha, scale 0 to 100 (0 no effect, 100 complete control), visual, 12 to 14 days, read-out: Plant response rating, Goosegrass
  pest or weed control at 500 g/ha: 50%
barnyardgrass
  pest or weed control at 1000 g/ha: 40%

## CCn1nc(C(C)(C)C)cc1C(=O)Nc1cc(C(=O)N(C)C)ccn1 [Compound 156, 2-[[[3-(1,1-dimethylethyl)-1-ethyl-1H-pyrazol-5-yl]carbonyl]amino]-N,N-dimethyl-4-pyridinecarboxamide]
Surinam grass; [18]
  Surinam Grass plant response rating: 95
Surinam grass; [10]
  pest or weed control at 62 g/ha: 75%
Surinam grass; Urochloa decumbens, pre-emergence, 312 h, 125 g ai/ha, scale 0 (no effect) to 100 (complete control), visual, 12 to 14 days, read-out: Plant response rating, Surinam Grass
  pest or weed control at 125 g/ha: 88%
lambsquarters; [11]
  pest or weed control at 125 g/ha: 60%
lambsquarters; [12]
  pest or weed control at 500 g/ha: 80%
lambsquarters; pre-emergence, 500 g ai/ha, visual rating 0-100, 0 no effect, 100 complete control, read-out: Plant response rating, Lambsquarters
  pest or weed control at 500 g/ha: 100%
lambsquarters; pre-emergence, preemergence, 125 g ai/ha, 0 to 100 scale, 0 is no effect, 100 is complete control, read-out: Plant response rating, Lambsquarters
  pest or weed control at 125 g/ha: 100%
soybean; [13]
  plant injury at 62 g/ha: 33%
soybean; Glycine max, pre-emergence, 125 g ai/ha, scale 0 (no effect) to 100 (complete control), visual, 12 to 14 days, read-out: Plant response rating, Soybean
  plant injury at 125 g/ha: 50%
soybean; [18]
  Soybean plant response rating: 100
pigweed; [14]
  pest or weed control at 62 g/ha: 95%
pigweed; [15]
  pest or weed control at 125 g/ha: 98%
pigweed; [18]
  Pigweed plant response rating: 100
goosegrass; [16]
  pest or weed control at 62 g/ha: 83%
goosegrass; [17]
  pest or weed control at 125 g/ha: 90%
goosegrass; [18]
  Goosegrass plant response rating: 95
barnyardgrass
  pest or weed control at 1000 g/ha: 100%

## Cc1nn(C(C)(C)C)nc1C(=O)Nc1cccc(C(=S)N(C)C)c1 [Compound 419]
Surinam grass; [1]
  Plant response rating, Surinam Grass: 0
Surinam grass; 125 g ai/ha, preemergence
  Plant response rating (0 = no effect, 100 = complete control), Surinam Grass: 45
Surinam grass; [3]
  Plant response rating, Surinam Grass: 100
lambsquarters; [8]
  Plant response rating (0 to 100 scale), Lambsquarters: 100
lambsquarters; Postemergence, 500 g ai/ha, scale 0 (no effect) to 100 (complete control)
  Lambsquarters plant response rating: 90
lambsquarters; [6]
  Lambsquarters plant response rating: 70
soybean; [1]
  Plant response rating, Soybean: 40
soybean; 125 g ai/ha, preemergence
  Plant response rating (0 = no effect, 100 = complete control), Soybean: 85
soybean; [3]
  Plant response rating, Soybean: 95
pigweed; [1]
  Plant response rating, Pigweed: 100
pigweed; 125 g ai/ha, preemergence
  Plant response rating (0 = no effect, 100 = complete control), Pigweed: 100
pigweed; [3]
  Plant response rating, Pigweed: 100
goosegrass; [1]
  Plant response rating, Goosegrass: 45
goosegrass; 125 g ai/ha, preemergence
  Plant response rating (0 = no effect, 100 = complete control), Goosegrass: 95
goosegrass; [2]
  Plant response rating, Goosegrass: 100
goosegrass; [3]
  Plant response rating, Goosegrass: 100
barnyardgrass
  Barnyardgrass plant response rating: 90
